Reference: EP0227593A1, “Use of chelating agents” (THE HOSPITAL FOR SICK CHILDREN, priority 1985, dated 1987)

Assays:
bone marrow cells = assay: Surface marker analysis by immunofluorescence on bone marrow cells at conclusion of the 20-day treatment; assay type: in vivo, human; details: conclusion of 20-day treatment course
Experimental: Cell Culture Procedure: 2 x 10⁵ T-depleted cells were incubated with 40 % RPMI-methylcellulose, 20 % PHA-LCM, 10 % FCS, irradiated feeder cells (10⁵/dish), 16.6 % RPMI in 35 mm Petri dishes. The culture dishes were placed into a specialized modular incubator chamber (Billups-Rosenberg, Del Mar, CA) in a humidified atmosphere of 5 % O₂, 5 % CO₂ and balanced nitrogen for 3-6 days. After 2 days of incubation, the culture dishes were carefully examined. Colonies were counted at day 4. A cluster of more than 20 cells was defined as a colony. Individual colonies were plucked from the culture plates and smeared on microscope slides for further evaluation, using Wright stain and non-specific esterase staining. For control, 2 x 10⁵ irradiated feeder cells were cultured in the same assay system in each experiment to exclude their potential for colony formation Immunocytochemical Method: The cell surface antigens of air dried smears were detected using monoclonal antibodies and intestinal alkaline phosphatase, as previously described. This assay was performed to detect surface antigens on patients' PB and BM smears and colonies plucked from cultures. The slides were counter- stained in hematoxylin for light microscopy and the presence of surface antigen was indicated as bright red granular cellular inclusions. Morphologic details were well preserved, and a very high degree of correlation between morphology and surface antigen expression was observed. The intensity of staining was defined as strong (+++), moderate (++) and weak (+). Immunofluorescence Method: The cell surface phenotype was determined by indirect cell-surface fluorescence: A fluorescein-conjugated goat anti-mouse IgG (FAb')₂ was used as second antibody. The labelling was performed at room temperature in the presence of 0.2 % sodium azide. The percentage of cells with surface fluorescence was determined by counting cells stained in three replicate wells using an inverted phase-fluorescent microscope. Monoclonal Antibodies: The following monoclonal antibodies were used in these studies: anti-OKIa (Ortho Diagnostic Systems Inc. Raritan, NJ) to detect HLA-D framework antigen, anti-MY-7, anti-Mol and anti-MY-4 (coulter Immunology) to identify myelomonocytic markers, anti-Ig. anti-BA1, anti-BA2, anti-B1, and anti-B4 (Becton-Dickinson) to recognize cells of the B-cell lineage, anti-J5 (Coulter Immunology) to recognize cells bearing common ALL (CALLA) antigen and anti-Leu-1 and anti-Leu-4 (Coulter Immunology) to recognize cells of the T-cell lineage.
Immunologic surface markers were determined by immunofluorescence before and at the conclusion of the 20-day treatment course on bone marrow cells.

blasts = assay: Marrow aspirate and cytochemistry at conclusion of the 20-day treatment protocol; assay type: in vivo, human
Text: In contrast to the marrow aspirate prior to DFO therapy, 60 % of the blasts were positive for non-specific esterase and staining could be inhibited by fluoride.

HL-60 cells = assay: Colony growth of HL-60 cells; assay type: cell-based, human
Experimental: HL-60 cells, a promyeloctic leukemia cell line originally developed by Dr. R. Gallo, NIH, were used. Cells were grown in RPMI supplemented with 10 % heat inactivated fetal calf serum (FCS, Flow Laboratories, Rockville, MO) and 2 mM glutamine (Gibco, Berkely, CA), at densities ranging from 1-2 x 10⁵/ml to 1-10⁶/ml, in a 5 % CO₂ humidified atmosphere at 37°C.
HL-60 cells (10⁴/ml) were plated in 0.8 % methycellulose in RPMI-1640 medium supplemented with 20 % heat inactivated (56°C, 30 min) fetal calf serum at a final volume of 1 ml/culture plate. Cultures were set up in duplicates and maintained at 37°C in a 5 % CO₂ humidified atmosphere. Deferoxamine was dissolved in iron-free RPMI culture medium and added at the initiation of culture at different concentrations (1-10 µM). Colonies were counted at 7 days using an inverted microscope. A cluster of more than 20 cells was defined as a colony. Individual colonies were plucked from culture plates spread on glass slides and morphologically assessed after preparation with Wright's stain and non-specific esterase in the presence of fluoride (29). The self renewal capacity of cells was assessed according to McCulloch et al (30). RPMI-1640 medium was added to culture dishes for 2 hrs; the contents of each dish were then transferred into a tube, centrifuged and washed with medium three times. Cells from each dish were counted separately, and viability was assessed by trypan blue dye exclusion. Cells (1x10⁴/ml) from each dish were recultured in 0.8 % methylcellulose as before.

L-1210 tumour cells = assay: L-1210 tumour growth in mice; assay type: in vivo; details: day 8
Experimental: One hour prior to kill on day 8 the mice received one ip injection of 0.002 mCi of 3H-thymidine per g body weight. Cells were harvested from the peritoneal cavity, the volume of ascites measured and the cell counts determined in a coulter counter, after lysis of red cells with zap-oglobin, for calculation of total tumour cell numbers. Also, of each sample cell smears were done, Feulgen stained and autoradiographed, whereby the number and percentage of labelled cells was determined and used as a measure for proliferating cells.

Lewis lung carcinoma = assay: Tumour growth and metastases of Lewis lung carcinoma in mice; assay type: in vivo; details: 11 injections
Experimental: Female C57B16 mice (10 mice/group, 18-22 g body weight) were i.m. injected into the left hind leg with 0.1 ml of a tumour cell suspension of Lewis lung carcinoma (day 0).
Nine groups of animals were investigated. The test compounds were s.c. administered as follows: physiological saline: once daily for eleven days starting from day 0 up to day 10. DFO: 0.5 ml in distilled water in a dose of 10 and 30 mg/kg once daily for eleven days, on day 0 up to day 10 after tumour inocculation. 10-EDAM: 0.5 ml in distilled water in a dose of 3 and 6 mg/kg, once daily on days 1, 3, 5, 7 and 9 after tumour inocculation.
Both hind legs were removed from the body, weighed, and the difference between the tumour bearing and the tumour free leg was taken as the tumour weight of one idividual mouse.
Lungs were filled up with Pelikan-ink via the trachea, fixed in Fekete-solution and metastases (white spot on black back-ground) on the lung surface were counted microscopically.

[1] = DFO 400 mg/kg/d s.c. minipump from day 2, Ara-C 200 mg/kg once ip on day 6

## CC(=O)N(O)CCCCCNC(=O)CCC(=O)N(O)CCCCCNC(=O)CCC(=O)N(O)CCCCCN [DFO, desferioxamine methanesulfonate]
Bone marrow cells
  % Positive Cells B4: 10%
  % Positive Cells BA-1: 0%
  % Positive Cells BA-2: 0%
  % Positive Cells Ia: 75%
  % Positive Cells MY-4: 20%
  % Positive Cells MY-7: 20%
  % Positive Cells Mo1: 20%
  % Positive Cells sIg: 0%
blasts; conclusion of the 20-day treatment protocol (DFO and Ara-C)
  blasts in marrow aspirate: 60%
blasts; marrow aspirate, conclusion of the 20-day treatment protocol
  blasts positive for non-specific esterase: 60%
HL-60 cells; 10 µm DFO
  inhibition of HL-60 colony proliferation: 100%
HL-60 cells; Homo sapiens, HL-60, 3.5 µM DFO, read-out: inhibition of HL-60 colony proliferation
  inhibition at 3.5 µM: 50%
L-1210 tumour cells; 3H-thymidine labelled cells, same doses as Table 12
  proportions of proliferating cells: 28 % ± 8%
L-1210 tumour cells; [1]
  Number of cells in the peritoneal cavity % of control: 95%
  Number of cells in the peritoneal cavity x̄ ± SD: 3.49 ± 1.75 10^8
  Number of proliferating cells in peritoneal cavity % of control: 80%
  Number of proliferating cells in peritoneal cavity x̄ ± SD: 0.98 ± 0.64 10^8
Lewis lung carcinoma; group 2: DFO 10 mg/kg s.c.
  Number of lung metastases % of control: 103%
  Number of lung metastases x̄ ± SD: 69 ± 26
  Tumour weight % of control: 100%
  Tumour weight x̄ ± SD: 7.56 ± 0.32 g
Lewis lung carcinoma; group 3: DFO 30 mg/kg s.c.
  Number of lung metastases % of control: 78%
  Number of lung metastases x̄ ± SD: 52 ± 16
  Tumour weight % of control: 106%
  Tumour weight x̄ ± SD: 7.99 ± 0.42 g
